The values that follow come from publication doi:10.1101/2023.05.15.540887, “Comparative analysis of drug-like EP300/CREBBP acetyltransferase inhibitors” (bioRxiv, 2023).

Data set [1] concerns the target T1, EP300 catalytic domain (Homo sapiens, UniProt Q09472).
T1 construct: disrupt the activity of EP300 catalytic domain; purchased Enzo BML-SE451-0100
T1 sequence (Q09472 1287-1663 limits assumed): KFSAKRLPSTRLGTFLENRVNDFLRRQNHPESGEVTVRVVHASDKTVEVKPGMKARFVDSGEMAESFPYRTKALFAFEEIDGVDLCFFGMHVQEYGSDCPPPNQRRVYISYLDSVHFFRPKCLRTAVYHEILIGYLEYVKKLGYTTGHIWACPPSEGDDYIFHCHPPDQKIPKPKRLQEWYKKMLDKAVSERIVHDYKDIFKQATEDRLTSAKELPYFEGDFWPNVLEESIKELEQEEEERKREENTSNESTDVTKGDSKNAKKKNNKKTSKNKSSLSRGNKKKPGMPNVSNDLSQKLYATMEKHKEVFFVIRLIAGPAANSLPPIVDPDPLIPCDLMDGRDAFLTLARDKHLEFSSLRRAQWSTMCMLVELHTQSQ
The data set can be described thus: TR-FRET assay of EP300-catalyzed acetylation of a histone H3 peptide. The class given is biochemical. The conditions noted are these: 50 nM H3 peptide and 200 μM acetyl-CoA. The protocol: Reaction mixtures were incubated for 1 h prior to addition of Alexa Fluor 647-labeled anti-H3K9Ac antibody and Europium-labeled streptavidin.
Briefly, an enzyme mix was made consisting of EP300 (100 nM; Enzo BML-SE451-0100) in assay buffer (25 mM HEPES pH 7.5, 150 mM NaCl, 2 mM DTT, 0.0001% Tween-20, 0.1 mg/m acetylated bovine serum albumin). This enzyme mix (3 μL) was added to white solid-bottom 1536-well plates (Greiner 789175) using a BioRaptr 2.0 Flying Reagent Dispenser (Let’s Go Robotics). […] Plates were read using a PHERAstar FSX microplate reader with HTRF optical module (BMG LabTech) and normalized to no enzyme (negative) and DMSO (neutral) controls. Standard curves were generated through titration of peptide substrate and acetylated peptide [Lys(Ac)9]-Histone H3 (1-21; AnaSpec AS-64191) to benchmark activity. […] Replicate activity measurements in the presence of inhibitors were averaged and half-maximal inhibition values calculated from the nonlinear fit of dose-response data using GraphPad Prism 9.
A general note: Time-resolved FRET reads energy transfer from a long-lived donor to a nearby acceptor.

Data set [2] in a line: HPLC analysis of photocaged inhibitor release (photodeprotection). The data set is classed as physicochemical. To be noted: 302 nm or 365 nm light, aqueous solution or buffer. An excerpt: One potential reason EP300/CREBBP acetyltransferase inhibitors are not actively being evaluated in clinical trials is on-target toxicity.[10] Thus, these molecules may benefit from strategies to direct them more specifically to malignant – as opposed to healthy – tissues. Light-activated drug release provides one potential approach.[38] […] Considering the studies above we wondered: could the high potency of the CPI-1612 scaffold enable conditional release of an active EP300/CREBBP inhibitor? To explore this, we prepared a photocaged CPI-1612 analogue (4) (Fig. 5a). […] Parent inhibitor 5 was synthesized based on the published route[40] and derivatized with nitrobenzyl chloroformate to produce the photocaged analogue 4 (Scheme S1). […] Cells were then incubated for 3 h, harvested, and assessed for changes in EP300/CREBBP-dependent H3K18Ac. […]
To assess the ability of 4 to undergo photodeprotection to form 5 in the presence of UV light, we analyzed model reactions by HPLC. […] To assess conversion of 4 to 5, irradiated reactions and controls were analyzed using an Agilent 1260 Infinity HPLC equipped with a Phenomenenex Kinetex C18 column (2.6 μm, 100 Angstrom, 100 × 4.6 mm inner diameter, H20-280322) and UV detector with monitoring at 280 nm. […]

In data set [3] the test system is EP300/CREBBP-dependent H3K18Ac in MCF-7 cells. The experiment in a line: Cellular photouncaging, H3K18Ac Western blot in MCF-7 cells. The data set is classed as cell-based, human. To be noted: MCF-7, 10 or 25 μM. An excerpt:
One potential reason EP300/CREBBP acetyltransferase inhibitors are not actively being evaluated in clinical trials is on-target toxicity.[10] Thus, these molecules may benefit from strategies to direct them more specifically to malignant – as opposed to healthy – tissues. Light-activated drug release provides one potential approach.[38] […] Considering the studies above we wondered: could the high potency of the CPI-1612 scaffold enable conditional release of an active EP300/CREBBP inhibitor? To explore this, we prepared a photocaged CPI-1612 analogue (4) (Fig. 5a). […] Parent inhibitor 5 was synthesized based on the published route[40] and derivatized with nitrobenzyl chloroformate to produce the photocaged analogue 4 (Scheme S1). […] To test whether active EP300/CREBBP inhibitor release could be controlled by light, we incubated cells with […] (10 or 25 μM), washed to remove inhibitor in media, and irradiated them for 1 min at 302 nm (Fig. 5e). Cells were then incubated for 3 h, harvested, and assessed for changes in EP300/CREBBP-dependent H3K18Ac. […] Although beyond the scope of the current study, we envision targeted release of potent EP300/CREBBP inhibitors could find utility in malignancies already treated using phototherapy, such as head and neck cancers,[41] as well as valuable applications in basic science.[42] […]

Details of data set [4]: method as in ref 40 = [40]; 40. Wilson J. E.; Brucelle F.; Levelle J. R. P300/CBP HAT inhibitors . WO2019161162A1 , 2019 . To be noted: patent literature; cited from earlier work.

For the compound `COc1cc(COC(=O)N(C[C@@H](C)c2ccc(C#N)cc2)C(C(=O)Nc2ccc(-c3cnn(CC(=O)N4CCCC4)c3)cn2)c2ccccc2)c([N+](=O)[O-])cc1OC` (some centres unmarked) [Compound 4], the “decrease in EP300/CREBBP inhibitor potency of caged relative to uncaged analogue 5” value in data set [1] is ~ 50 fold. Moreover, the “photodeprotection to 5 (HPLC reaction monitoring)” value in data set [2] is “facile conversion of 4 to 5”. Further, the “change in H3K18Ac, treated and exposed to light (UV)” value in data set [3] (302 nm 1 min, then 3 h) is on record as “clear decreases in H3K18Ac”. Also, the “change in H3K18Ac, treated only (no irradiation)” value in data set [3] (no UV) is “no such effect”.

As for `C[C@H](CNC(C(=O)Nc1ccc(-c2cnn(CC(=O)N3CCCC3)c2)cn1)c1ccccc1)c1ccc(C#N)cc1` (some centres unmarked) [Compound 5], the “in vivo antitumor activity” value in data set [4] is “potent in vivo antitumor activity”.
